Tests used:
[1] = Storage stability of ICG fluorescence in the dark at 4° C.; format: physicochemical; conditions: for % ICG fluorescence (8 months): stored in the dark at 4° C. for 8 months, % of initial fluorescence intensity, mean ± SD
Protocol: (§1) Fluorescence. Fluorescence measurements were performed on a Victor3 V 1420-040 Multilabel Plate Reader (Perkin-Elmer, Waltham, Mass.) with a tungsten-halogen continuous wave lamp (75 W, spectral range of 320-800 nm) and excitation (769±41 nm) and emission (832±37 nm) filters (Semrock, Rochester, N.Y.) using 100μL of sample in flat bottom, untreated 96-well plates (Grenier Bio-one, Monroe, N.C.).
(§2) Light Exposure and Storage Stability. […] For storage stability (FIG. 12), samples were placed in the dark at 4° C. for up to 313 days. […] The time-dependent decay of ICG fluorescence was analyzed on the basis of an exponential decay model with GraphPad Prism version 6.0 (GraphPad Software, San Diego, Calif.). The data were expressed as t½ (half-life) and k (rate constant).

[2] = Light exposure stability of ICG fluorescence; format: physicochemical
Protocol: as §1, §2

[3] = system: lymph nodes and vessels in mice; experiment: In vivo NIR lymphatic imaging in mice after subcutaneous foot injection; parameters: species or system mouse; conditions: for max NIRF intensity: mean ± SEM (N = 3-4)
Protocol: (§3) In Vivo NIR Lymphatic Imaging in Mice. Mice were kept under pathogen-free conditions, exposed to a 12 h light-dark cycle, and received food ad libitum prior to imaging. All procedures were approved by the University of Washington Institutional Animal Care and Use Committee. Mice were anesthetized with 1.5% isoflurane, shaved to remove fur, and placed in a supine position on a 37° C. heat pad underneath an IVIS Lumina II NIR CCD camera (Perkin Elmer, Waltham, Mass.). Precontrast images were taken to confirm the absence of autofluorescence. Forty microliters of ICG-LNPs or free ICG was injected subcutaneously into the top of both rear feet. Immediately following injections, both feet were placed under gentle even pressure. Images were acquired for up to 120 min prior to euthanasia by cervical dislocation under anesthesia, upon which the skin was surgically opened to perform lymph node imaging.

[4] = system: popliteal and sciatic lymph nodes; experiment: In vivo pharmacokinetics of fluorescence intensity in draining lymph nodes detected through skin; conditions: subcutaneous, mouse foot, N = 3
Protocol: as §3

half-life ([1]; buffer, stored in the dark at 4° C., exponential decay model, (95% CI)): 28.6 h
% ICG fluorescence (8 months) [1]: 0.3 +/− 0.2%
% ICG fluorescence (8 months) ([1]; listed as free ICG): 0.3±0.2%
k (rate constant) ([1]; stored in the dark at 4° C., exponential decay model): 0.582 day⁻¹
fluorescence intensity, % of the initial value ([2]; after 6 hours of light exposure, 2.0 μM ICG, overhead fluorescent light): 2.5±0.5%
half-life at 2 μM ([2]; aqueous solution (free ICG in solution), light exposure, exponential decay model): 2.16 ± 0.3 min
k ([2]; light exposure, exponential decay model): 19.2 ± 2.7 h⁻¹
AUC0-2 hr ([4]; fluorescence intensity in 1st draining lymph node (popliteal LN) through skin): 61.65 ± 34.83 a.u.*min
Intensitymax ([4]; popliteal LN through skin): 0.66 ± 0.42 a.u.
k ([4]; popliteal LN through skin): 0.19 ± 0.17 h⁻¹
Compound: CC1(C)C(/C=C/C=C/C=C/C=C2\N(CCCCS(=O)(=O)O)c3ccc4ccccc4c3C2(C)C)=[N+](CCCCS(=O)(=O)[O-])c2ccc3ccccc3c21 [Free ICG, sodium 2-[7-[3,3-dimethyl-1-(4-sulfonatobutyl)benz[e]indolin-2-ylidene]hepta-1,3,5-trien-1-yl]-3,3-dimethyl-1-(4-sulfonatobutyl)benz]
No. of nodes detected ([3]; Axillary): 2
max NIRF intensity ([3]; Axillary LN): 0.8 ± 0.1 10^−5 a.u.
No. of nodes detected ([3]; Gastric): 1-2
max NIRF intensity ([3]; Gastric LN): 2.5 ± 1.3 10^−5 a.u.
No. of nodes detected ([3]; Medial iliac): 1-2
max NIRF intensity ([3]; Medial iliac LN): 4.1 ± 1.6 10^−5 a.u.
max NIRF intensity ([3]; Pop afferent vessel): 0.6 ± 0.2 10^−5 a.u.
max NIRF intensity ([3]; Pop efferent vessel): 0.6 ± 0.1 10^−5 a.u.
No. of nodes detected ([3]; Popliteal (Pop)): 1
max NIRF intensity ([3]; Popliteal (Pop) LN): 4.7 ± 2.2 10^−5 a.u.
No. of nodes detected ([3]; Sciatic): 0
max NIRF intensity ([3]; Sciatic LN): 0.6 ± 0.1 10^−5 a.u.
ICG intensity mean of the popliteal lymph node ([3]; image collected below the skin, six minutes, 0.5 nmol of ICG subcutaneously in foot): 37.0

From patent publication US10238756B2, “Lipid nanoparticles and uses thereof” (Tongli Biomedical Co., Ltd., priority 2015, dated 2019)
